Test results published in publication PMC5650142, “GPR40 partial agonists and AgoPAMs: Differentiating effects on glucose and hormonal secretions in the rodent” (PLoS ONE, 2017).
Values joined by “and” are separate entries in the source; they are usually repeats but may differ in a detail not shown here. Equal entries are not always repeated.

Key:
GK rats [1] = test: Endogenous glucose production in vivo (2H/13C dual tracer); design: species or system rat;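 on Glucose production, EGP Total: micromoles per kg body weight per minute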;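 on Glucose production, Glycerol: absolute flux in micromoles per kg per minute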;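 on Glucose production, Glycogen: absolute flux in micromoles per kg per minute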;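 on Glucose production, TCA: absolute flux in micromoles per kg per minute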
Procedure: To evaluate the effects of the GPR40 partial and AgoPAM compounds on EGP in vivo, a 2H/13C dual tracer approach was used to calculate EGP and its contributing sources. Following the chronic treatments described above, 0.9% NaCl salinated deuterium oxide (D2O, Sigma-Aldrich, St. Louis, MO) was administered to all animals via intraperitoneal (IP) injection at dose volume of 20 ml/kg at 1 hr post lights on. Animals were then placed in clean cages and food was removed. After a 5 hour fast, blood glucose was measured and animals were dosed with 50 mg/kg [U-13C] glucose (Sigma-Aldrich, St. Louis, MO) IP at 5 ml/kg. Blood was collected via tail snip at time points from 60–150 min post treatment to measure blood glucose (via glucometer) as well as endogenous (12C-glucose) and exogenous (13C-glucose) via GCMS. Following the last tail blood collection, rats were anesthetized with isoflurane and cardiac blood was collected into K2EDTA tubes (Becton, Dickinson and Co., Franklin Lakes, NJ).
The serially collected blood samples were analyzed for 13C-glucose enrichment using GC-MS analysis. The % 13C glucose enrichments were then combined with the total glucose readings to calculate the concentration of 13C-glucose, and these values were modeled with a two-compartment model of whole body glucose metabolism to calculate the average EGP for the period from 0–150 minutes.
Terminal blood samples were analyzed for relative 2H enrichment in plasma glucose using the monoacetone glucose method. Briefly, samples were extracted with 70% perchloric acid at a ratio of 50 μl perchloric acid per 1 ml plasma and centrifuged at 25,000 rcf for 10 min at 4°C. The supernatant was collected and the pH was adjusted to 6–8 using aqueous KOH. The samples were then lyophilized overnight. To convert plasma glucose to monoacetone glucose (MAG), acetone and concentrated sulfuric acid were added to the lyophilized samples and stirred for 4 hours at room temperature. Water was then added and the pH adjusted to 2.0 with 3M Na2CO3. Samples were stirred moderately for 18 hours at room temperature, the pH was adjusted to 7 with 3M Na2CO3, and the samples were completely dried by speed vacuum concentration. The resulting MAG samples were then extracted in hot ethyl acetate, dried overnight under a stream of N2 gas, and purified using Discovery DSC-18 SPE columns (6 ml, 1 g bed weight). For the SPE protocol, MAG samples were reconstituted in 3 ml water and passed over the columns which were pre-washed with 2 ml methanol. The columns were rinsed twice with 1 ml water and the MAG was eluted with 5% acetonitrile. The acetonitrile eluent was then transferred to a glass scintillation vial and freeze dried. Purified MAG samples were solubilized in 180 μl 90% acetonitrile for 2H NMR analysis which was performed using the lock channel of a 950 MHz Bruker NMR spectrometer (David H Murdock Research Institute, DHMRI Kannapolis, NC). Acquisition parameters were as follows: 90° pulse, D1 = 1 s, 1H broadband decoupling, NS = 3600, acquisition time ~ 1 hr. The 2H NMR spectra of the MAG samples were then analyzed using Matlab (The Mathworks Inc, Natick, MA) to model the NMR peaks with a Lorentzian lineshape, and the results were used to calculate integrals for each of the seven NMR resonances in the MAG spectrum. Peaks 2, 5, and 6s were then used to calculate the relative sources of EGP (i.e. gluconeogenesis from TCA cycle substrates, glucose production from triose phosphates, and glycogenolysis) and these values were combined with the total EGP measurement to calculate absolute fluxes of glucose production.

GK rats [2] = test: 13C-labeled glucose tolerance test (tissue 13C-glycogen); format: in vivo; settings: GK rat, 13C-GTT after sub-chronic treatment; vs MK-8666 or vehicle
Procedure: On day 0, GK rats were selected and sorted into treatment groups based on ambient glucose measured via glucometer at 1 h post lights on. MK-8666 at 30 mg/kg was administered in feed (Research Diets) and provided ad lib on day 0. On days 1–6, rats were dosed via oral gavage (PO) at a volume of 5 ml/kg daily at approximately 12:30 PM with either vehicle (0.5% methylcellulose) or AP1 at 10 mg/kg. Rats from the MK-8666 group were administered vehicle PO at this time. On day 7, ambient glucose was measured 1 hr post lights on and food was removed. After approximately 5 hrs fasting, glucose was measured at time = - 60 min, followed by PO administration of vehicle or AP1. […] Blood glucose was then measured at t = 20, 40, 60, 120 minutes post challenge. […]
Glycogen is a primary site of glucose disposal in both liver and muscle; however glycogen was not preserved in our tissue extraction protocol. To quantify tissue 13C-glycogen, a separate piece of tissue from each sample was analyzed. […] The resulting glycogen-derived glucose solution was analyzed for total glucose using a glucose oxidase / horseradish peroxidase assay kit and fluorescence-based product detection according to the manufacturers’ instructions (BioVision Glycogen Assay Kit, Milpitas, CA).

[3] = GK rats, 30 mpk, individual animal values (data for Fig 8), 30 mg/kg

Cc1cc(OCCCS(C)(=O)=O)cc(C)c1-c1cccc(COc2cc3c(cn2)[C@H]2[C@@H](C3)[C@@H]2C(=O)O)c1 [MK-8666]
endogenous glucose production (EGP) (GK rats [1]; GK rat, following chronic treatment): reduced
Glucose production, EGP Total (GK rats [1]; [3]): 47.3366 µmol/kg/min and 49.7015 µmol/kg/min and 23.1675 µmol/kg/min and 46.5921 µmol/kg/min and 49.3944 µmol/kg/min and 59.3105 µmol/kg/min and 53.4963 µmol/kg/min
Glucose production, Glycerol (GK rats [1]; [3]): 8.397 µmol/kg/min and 6.008 µmol/kg/min and 2.752 µmol/kg/min and 6.734 µmol/kg/min and 8.91 µmol/kg/min and 9 µmol/kg/min and 9.76 µmol/kg/min
Glucose production, Glycogen (GK rats [1]; [3]): 15.2782 µmol/kg/min and 19.9182 µmol/kg/min and 7.082 µmol/kg/min and 20.1227 µmol/kg/min and 18.1009 µmol/kg/min and 21.3139 µmol/kg/min and 17.6544 µmol/kg/min
Glucose production, TCA (GK rats [1]; [3]): 23.6618 µmol/kg/min and 23.7752 µmol/kg/min and 13.3332 µmol/kg/min and 19.7357 µmol/kg/min and 22.3838 µmol/kg/min and 28.9962 µmol/kg/min and 26.0816 µmol/kg/min

COc1ccc(F)c(-c2ccc([C@@H]3CCc4ccc([C@H](C5CC5)[C@H](C)C(=O)O)cc4O3)cc2)c1 [AP1]
skeletal muscle 13C-glycogen levels (GK rats [2]): increased
